Source: ChEMBL document CHEMBL1201862, “PubChem BioAssay data set” (2004)
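Step 1: Grow cells in 96-well plates. Step 2: Expose to compound for 48 hours at 5 concentrations. Step 3: Interpolate endpoints linearly; if unreached, use highest concentration. At the GI50, growth is halved.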 Activity calls are given as the source filed them. No stated cut-off is given here; in the data, active = GI50 up to about 1.1 µM and inactive = higher.

Experiments:
Assay in all cases: NCI-60 cell line screen, 48 h
U-251 = system: U-251
786-0 = system: 786-0
UACC-257 = system: UACC-257
SW-620 = system: SW-620
COLO 205 = system: COLO 205
SNB-78 = system: SNB-78
HOP-62 = system: HOP-62
LOX IMVI = system: LOX IMVI
SK-OV-3 = system: SK-OV-3
SK-MEL-28 = system: SK-MEL-28
DLD-1 = system: DLD-1
OVCAR-3 = system: OVCAR-3
DMS-114 = system: DMS-114
NCI-H522 = system: NCI-H522
SF-295 = system: SF-295
Malme-3M = system: Malme-3M
CCRF-CEM = system: CCRF-CEM
UACC-62 = system: UACC-62
SF-539 = system: SF-539
SF-268 = system: SF-268
M19-MEL = system: M19-MEL
TK-10 = system: TK-10
NCI-H226 = system: NCI-H226
KM-20L2 = system: KM-20L2
IGROV-1 = system: IGROV-1
SN12C = system: SN12C
OVCAR-8 = system: OVCAR-8
NCI-H460 = system: NCI-H460
LXFL 529 = system: LXFL 529
A498 = system: A498
MDA-N = system: MDA-N
SNB-19 = system: SNB-19
BT-549 = system: BT-549
SK-MEL-2 = system: SK-MEL-2
MCF7 = system: MCF7
MDA-MB-231 = system: MDA-MB-231
CAKI-1 = system: CAKI-1
HCT-116 = system: HCT-116
HT-29 = system: HT-29
NCI-H23 = system: NCI-H23
M14 = system: M14
A549 = system: A549
SR = system: SR
MDA-MB-435 = system: MDA-MB-435
OVCAR-4 = system: OVCAR-4
SNB-75 = system: SNB-75
HCC 2998 = system: HCC 2998
EKVX = system: EKVX
UO-31 = system: UO-31
KM12 = system: KM12
PC-3 = system: PC-3
OVCAR-5 = system: OVCAR-5
HL-60 = system: HL-60
T47D = system: T47D
NCI/ADR-RES = system: NCI/ADR-RES
RXF 393 = system: RXF 393
ACHN = system: ACHN
HOP-92 = system: HOP-92
SK-MEL-5 = system: SK-MEL-5
HCT-15 = system: HCT-15
RPMI-8226 = system: RPMI-8226
DU-145 = system: DU-145
MOLT-4 = system: MOLT-4
Hs-578T = system: Hs-578T
K562 = system: K562

## CCCCCCCCCCCCCB(O)O
U-251
  GI50: 60.4 µM (inactive)
786-0
  GI50: 95.5 µM (inactive)
UACC-257
  GI50: > 100 µM (inactive)
SW-620
  GI50: 61.5 µM (inactive)
COLO 205
  GI50: > 100 µM (inactive)
SNB-78
  GI50: 58.1 µM (inactive)
HOP-62
  GI50: > 100 µM (inactive)
LOX IMVI
  GI50: > 100 µM (inactive)
SK-OV-3
  GI50: > 100 µM (inactive)
SK-MEL-28
  GI50: > 100 µM (inactive)
DLD-1
  GI50: 65.2 µM (inactive)
OVCAR-3
  GI50: 50.7 µM (inactive)
DMS-114
  GI50: 65.5 µM (inactive)
NCI-H522
  GI50: 51.3 µM (inactive)
SF-295
  GI50: > 100 µM (inactive)
Malme-3M
  GI50: > 100 µM (inactive)
CCRF-CEM
  GI50: 57.8 µM (inactive)
UACC-62
  GI50: > 100 µM (inactive)
SF-539
  GI50: > 100 µM (inactive)
SF-268
  GI50: 69.2 µM (inactive)
M19-MEL
  GI50: > 100 µM (inactive)
TK-10
  GI50: > 100 µM (inactive)
NCI-H226
  GI50: 96.2 µM (inactive)
KM-20L2
  GI50: 60.7 µM (inactive)
IGROV-1
  GI50: > 100 µM (inactive)
SN12C
  GI50: 66.2 µM (inactive)
OVCAR-8
  GI50: > 100 µM (inactive)
NCI-H460
  GI50: 85.5 µM (inactive)
LXFL 529
  GI50: 81.8 µM (inactive)
A498
  GI50: 50.2 µM (inactive)

## CCOP(=O)(OCC)OC1c2[nH]cc(C(=O)OCc3ccccc3)c2-c2cc(C(=O)OC)[nH]c2C1OC (centres undefined)
MDA-N
  GI50: 17.5 µM (inactive)
SNB-19
  GI50: 14.7 µM (inactive)
U-251
  GI50: 11.4 µM (inactive)
786-0
  GI50: 7.76 µM (inactive)
UACC-257
  GI50: 6.79 µM (inactive)
BT-549
  GI50: 12.1 µM (inactive)
SW-620
  GI50: 14.5 µM (inactive)
COLO 205
  GI50: 6.89 µM (inactive)
SK-MEL-2
  GI50: 9.4 µM (inactive)
HOP-62
  GI50: 7.76 µM (inactive)
MCF7
  GI50: 8.67 µM (inactive)
LOX IMVI
  GI50: 4.56 µM (inactive)
SK-OV-3
  GI50: 17.7 µM (inactive)
MDA-MB-231
  GI50: 2.91 µM (inactive)
CAKI-1
  GI50: 20.2 µM (inactive)
SK-MEL-28
  GI50: 4.94 µM (inactive)
HCT-116
  GI50: 6.4 µM (inactive)
OVCAR-3
  GI50: 11.2 µM (inactive)
NCI-H522
  GI50: 6.53 µM (inactive)
SF-295
  GI50: 5 µM (inactive)
HT-29
  GI50: 3.24 µM (inactive)
NCI-H23
  GI50: 13.4 µM (inactive)
Malme-3M
  GI50: 9.06 µM (inactive)
M14
  GI50: 9.08 µM (inactive)
A549
  GI50: 5.85 µM (inactive)
SR
  GI50: 7.6 µM (inactive)
CCRF-CEM
  GI50: > 24.8 µM (inactive)
UACC-62
  GI50: 7.05 µM (inactive)
MDA-MB-435
  GI50: > 60.1 µM (inactive)
OVCAR-4
  GI50: 6.15 µM (inactive)
SF-539
  GI50: 8.45 µM (inactive)
SNB-75
  GI50: 13.2 µM (inactive)
HCC 2998
  GI50: 6.85 µM (inactive)
EKVX
  GI50: 5.94 µM (inactive)
SF-268
  GI50: 12.5 µM (inactive)
UO-31
  GI50: 4.57 µM (inactive)
KM12
  GI50: 7.96 µM (inactive)
PC-3
  GI50: 4.94 µM (inactive)
TK-10
  GI50: 4.91 µM (inactive)
NCI-H226
  GI50: 16.1 µM (inactive)
OVCAR-5
  GI50: 37 µM (inactive)
HL-60
  GI50: 6.15 µM (inactive)
T47D
  GI50: 7.91 µM (inactive)
IGROV-1
  GI50: 7.59 µM (inactive)
NCI/ADR-RES
  GI50: 7.53 µM (inactive)
RXF 393
  GI50: 8.18 µM (inactive)
SN12C
  GI50: 16.4 µM (inactive)
ACHN
  GI50: 4.66 µM (inactive)
HOP-92
  GI50: 4.28 µM (inactive)
SK-MEL-5
  GI50: 7.46 µM (inactive)
OVCAR-8
  GI50: 12.8 µM (inactive)
HCT-15
  GI50: 3.25 µM
RPMI-8226
  GI50: 5.62 µM (inactive)
DU-145
  GI50: 11 µM (inactive)
NCI-H460
  GI50: 4.55 µM (inactive)
MOLT-4
  GI50: 3.58 µM (inactive)
Hs-578T
  GI50: 16.8 µM (inactive)
K562
  GI50: > 20 µM (inactive)
A498
  GI50: 10.6 µM (inactive)
